How the values were obtained:
Format in all cases: cell-based
human CYP11B2 [1] = biological target: T1, human CYP11B2 (Homo sapiens, UniProt P19099); assay: V79MZh11B2 cell assay, [3H]-deoxycorticosterone, HPLC radioflow detection; settings: V79MZh11B2 cells, 100 nM deoxycorticosterone, 50 min, read-out: V79 Human CYP11B2 IC50
T1 construct: expressed in transfected cells; host or cells: V79 cells (clone V79-hCYP11B2-CLE9)
T1 sequence (P19099 25-503): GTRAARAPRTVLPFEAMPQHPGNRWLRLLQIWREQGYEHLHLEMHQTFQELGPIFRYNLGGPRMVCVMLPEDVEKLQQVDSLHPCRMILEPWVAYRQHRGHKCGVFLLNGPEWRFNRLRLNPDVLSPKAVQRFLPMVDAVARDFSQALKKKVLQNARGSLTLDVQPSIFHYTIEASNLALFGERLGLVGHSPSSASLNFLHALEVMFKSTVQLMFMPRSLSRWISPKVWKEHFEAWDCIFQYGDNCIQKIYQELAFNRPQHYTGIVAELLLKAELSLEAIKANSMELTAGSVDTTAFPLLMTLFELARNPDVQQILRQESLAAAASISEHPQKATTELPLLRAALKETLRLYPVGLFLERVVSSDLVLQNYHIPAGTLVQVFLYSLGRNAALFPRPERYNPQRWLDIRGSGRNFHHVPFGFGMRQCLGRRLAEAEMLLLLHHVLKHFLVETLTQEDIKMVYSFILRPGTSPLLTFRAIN
Experimental: (§1) Compounds of the Examples 157-170 were assayed for V79-Human-CYP11B2 and V79-Human-CYP11B1 by modifying the protocol described in J. Steroid Biochem. Mol. Biol. 81; 173-179 (2002). V79MZh11B1 and V79MZh11B2 cells (8×10^5 cells/well) were grown on 24-well culture plates until confluence. Before testing, the DMEM culture medium was removed and 450 μl of fresh DMEM containing the inhibitor was added to each well. After a preincubation step of 60 min at 37° C., the reaction was started by the addition of 50 μl of DMEM in which the substrate deoxycorticosterone (containing 0.15 μCi of [1,2-3H]-deoxycorticosterone in ethanol, final test concentration 100 nM) was dissolved. Incubation times were 25 min for V79MZh11B1 and 50 min for V79MZh11B2 cells at 37° C., respectively. The enzyme reactions were stopped by extracting the supernatant with ethyl acetate. Samples were centrifuged (10.000 g, 5 min) and the solvent was pipetted into fresh cups. After evaporation of the solvent, the steroids were redissolved in 40 μl of […] and analyzed by HPLC. Detection and quantification of the steroids were performed using a radioflow detector. […] The inhibitor concentrations were all in the linear range of the dose-response-curves, so that the coefficients of correlation were at least 0.95 for each determination. The final IC50 value was estimated as the average of three or four independent IC50 values and a selectivity factor corresponding to the ratio between the IC50 values of CYP11B1 and CYP11B2 was calculated for each substance.

human CYP11B1 [2] = biological target: T2, human CYP11B1 (Homo sapiens, UniProt P15538); assay: V79MZh11B1 cell assay, [3H]-deoxycorticosterone, HPLC radioflow detection; settings: V79MZh11B1 cells, 100 nM deoxycorticosterone, 25 min, read-out: V79 Human CYP11B1 IC50
T2 construct: expressed in transfected cells; host or cells: V79MZh11B1 cells
T2 sequence (P15538 25-503): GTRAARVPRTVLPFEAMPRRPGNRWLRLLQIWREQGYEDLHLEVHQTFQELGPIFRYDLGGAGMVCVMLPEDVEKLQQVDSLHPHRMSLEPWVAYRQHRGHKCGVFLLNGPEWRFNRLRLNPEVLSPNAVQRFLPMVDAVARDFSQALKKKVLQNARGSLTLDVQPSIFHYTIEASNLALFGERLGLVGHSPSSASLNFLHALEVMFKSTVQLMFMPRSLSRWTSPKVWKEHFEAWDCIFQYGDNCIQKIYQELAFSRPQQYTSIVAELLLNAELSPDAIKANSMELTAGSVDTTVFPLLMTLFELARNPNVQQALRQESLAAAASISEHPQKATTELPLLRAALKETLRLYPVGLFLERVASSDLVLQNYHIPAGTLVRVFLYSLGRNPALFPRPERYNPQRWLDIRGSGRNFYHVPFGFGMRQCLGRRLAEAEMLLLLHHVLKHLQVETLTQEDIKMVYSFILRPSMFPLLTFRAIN
Experimental: as §1

human CYP11B2 [3] = biological target: T1, human CYP11B2; assay: V79-Human-CYP11B2 cell assay, modified protocol (600,000 cells/mL); settings: 0.30 μl inhibitor
Experimental: (§2) V79 cell lines stably expressing the either the human CYP11B2 or the human CYP11B1 enzyme were generated using a standard transfection protocol. V79 cells were transfected with plasmids pTriEx3-Hygro-hCyp11B2 or pTriEx3-Hygro-hCyp11B1 using Lipofectamine2000 reagent. V79 cells that stably express the human CYP11B2 or human CYP11B1 enzyme were selected for and maintained in DMEM supplemented with 10% FBS and 400 μg/mL hygromycin for ˜2 weeks. Single cell clones were generated by infinite dilution in DMEM supplemented with 10% FBS and 400 μg/mL hygromycin until single colonies were obtained. […] For testing of inhibitors, cells were harvested at 80% confluency with 0.5% Trypsan-EDTA, washed once in PBS, and reconstituted in DMEM+0.1% BSA media at a cell concentration of 400,000 cells/mL. 25 μl of cells were added to a 384 well tissue culture treated plate and mixed with 0.25 μl of inhibitor or DMSO (1% final DMSO concentration) for 1 hour at 37° C., 5% CO2. After pre-incubation with inhibitor, the reaction was initiated by adding 5 μl of substrate (final concentration of 125 nM 11-deoxycorticosterone for the CYP11B2 assay or 250 nM 11-deoxycortisol for the CYP11B1 assay). The reaction was carried out for 3 hours at 37° C., 5% CO2 and was stopped by harvesting the supernatants. The amount of product in the supernatant (aldosterone for CYP11B2 assay and cortisol for the CYP11B1 assay) was measured using HTRF-based assay kit (Aldosterone HTRF-CisBio#64ALDPEB, Cortisol HTRF-CisBio #631DC002-CORT). IC50's for the inhibitor were determined by plotting the amount of product formed against the concentration of inhibitor using sigmoidal dose-response curve (variable slope) fit in GraphPad.
(§3) For the CYP11B2 assay, cells were reconstituted in DMEM+0.1% BSA media at a cell concentration of 600,000 cells/mL and for the CYP11B1 assay cells were reconstituted in DMEM+0.1% BSA media at a cell concentration of 280,000 cells/mL. 25 μl of cells were added to a 384 well tissue culture treated plate and mixed with 0.30 μl of inhibitor or DMSO (1% final DMSO concentration) for 1 hour at 37° C., 5% CO2.

human CYP11B1 [4] = biological target: T2, human CYP11B1; assay: V79-Human-CYP11B1 cell assay, modified protocol (280,000 cells/mL); settings: 0.30 μl inhibitor
Experimental: as §2, §3

| Compound | IC50 (human CYP11B2 [1]) [nM] | IC50 (human CYP11B1 [2]) [µM] | IC50 (human CYP11B2 [3]) [nM] | IC50 (human CYP11B1 [4]) [µM] |
| --- | --- | --- | --- | --- |
| Fc1cc(-c2cccnc2)cc2c1-n1cnnc1CC2 [Example 166, 9-fluoro-7-pyridin-3-yl-4,5-dihydro-[1,2,4]triazolo[4,3-a]quinoline] | 172 | 16.1 | – | – |
| CC(=O)c1cncc(-c2cc(F)c3c(c2)CCc2nnc(C)n2-3)c1 [Example 160, 1-[5-(9-fluoro-1-methyl-4,5-dihydro-[1,2,4]triazolo[4,3-a]quinolin-7-yl)-pyridin-3-yl]-ethanone] | 87.6 | 6.97 | – | – |
| Cc1nnc2n1-c1cc(F)c(-c3cccnc3)cc1CC2 [Example 167, 8-fluoro-1-methyl-7-pyridin-3-yl-4,5-dihydro-[1,2,4]triazolo[4,3-a]quinoline] | 131 | 12.6 | – | – |
| Cc1nnc2n1-c1c(F)cc(-c3cccnc3)cc1CC2 [Example 165, 9-fluoro-1-methyl-7-pyridin-3-yl-4,5-dihydro-[1,2,4]triazolo[4,3-a]quinoline] | 62.5 | 17 | – | – |
| Cc1nnc2n1-c1c(F)cc(-c3cncc(F)c3)cc1CC2 [Example 157, 9-fluoro-7-(5-fluoro-pyridin-3-yl)-1-methyl-4,5-dihydro-[1,2,4]triazolo[4,3-a]quinoline] | 89.7 | 29.5 | – | – |
| COc1cncc(-c2cc(F)c3c(c2)CCc2nnc(C)n2-3)c1 [Example 158, 9-fluoro-7-(5-methoxy-pyridin-3-yl)-1-methyl-4,5-dihydro-[1,2,4]triazolo[4,3-a] quinoline] | 20.3 | 1.81 | – | – |
| Cc1nnc2n1-c1c(F)cc(-c3cncc4ccccc34)cc1CC2 [Example 164, 9-fluoro-7-isoquinolin-4-yl-1-methyl-4,5-dihydro-[1,2,4]triazolo[4,3-a]quinoline] | 2.2 | 0.11 | – | – |
| Cc1nnc2n1-c1c(Cl)cc(-c3cnccc3C(F)(F)F)cc1CC2 [Example 83, 9-chloro-1-methyl-7-(4-(trifluoromethyl)pyridin-3-yl)-4,5-dihydro-[1,2,4] triazolo[4,3-a]quinoline] | – | – | 22 | > 30 |
| Cc1nnc2n1-c1c(F)cc(-c3cncc(C(F)(F)F)c3)cc1CC2 [Example 161, 9-fluoro-1-methyl-7-(5-trifluoromethyl-pyridin-3-yl)-4,5-dihydro-[1,2,4]triazolo [4,3-a]quinoline] | 57.2 | 3.57 | – | – |
| Cc1nnc2n1-c1cc(Cl)c(-c3cncc4ccccc34)cc1CC2 [Example 113, 8-chloro-7-(isoquinolin-4-yl)-1-methyl-4,5-dihydro-[1,2,4]triazolo[4,3-a]quinoline] | – | – | 17 | > 10 |
| Cc1nnc2n1-c1c(F)cc(-c3cncc(-c4ccccc4)c3)cc1CC2 [Example 162, 9-fluoro-1-methyl-7-(5-phenyl-pyridin-3-yl)-4,5-dihydro-[1,2,4]triazolo[4,3-a]quinoline] | 7.1 | 0.428 | – | – |
| COc1c(C)cncc1-c1cc2c(cc1F)-n1c(C)nnc1CC2 [Example 122, 8-fluoro-7-(4-methoxy-5-methylpyridin-3-yl)-1-methyl-4,5-dihydro-[1,2,4]triazolo[4,3-a]quinoline] | – | – | 32 | > 10 |
| 9-chloro-7-(5-chloro-4- methylpyridin-3-yl)-1- methyl-4,5-dihydro- [1,2,4]triazolo[4,3- a]quinoline [Example 93] | – | – | 6 | 0.765 |
| Fc1cc2c(cc1-c1cccnc1)CCc1nncn1-2 [Example 168, 8-fluoro-7-pyridin-3-yl-4,5-dihydro-[1,2,4]triazolo[4,3-a]quinoline] | 244 | 7.9 | – | – |
| CCc1c(F)cncc1-c1cc(F)c2c(c1)CCc1nnc(C)n1-2 [Example 169, 7-(4-ethyl-5-fluoropyridin-3-yl)-9-fluoro-1-methyl-4,5-dihydro-[1,2,4]triazolo[4,3-a]quinoline] | 11 | 3.07 | – | – |
| Cc1nnc2n1-c1c(F)cc(-c3cncc(C(C)O)c3)cc1CC2 (stereo not shown) [Example 159, 1-[5-(9-fluoro-1-methyl-4,5-dihydro-[1,2,4]triazolo[4,3-a]quinolin-7-yl)-pyridin-3-yl]-ethanol] | 28.3 | 3.91 | – | – |
| CCc1c(F)cncc1-c1cc(Cl)c2c(c1)CCc1nnc(C)n1-2 [Example 80, 9-chloro-7-(4-ethyl-5-fluoropyridin-3-yl)-1-methyl-4,5-dihydro[1,2,4]triazolo-[4,3-a]quinoline] | – | – | 7 | 3.14 |
| Cc1ccncc1-c1cc(F)c2c(c1)CCc1nnc(C)n1-2 [Example 163, 9-fluoro-1-methyl-7-(4-methyl-pyridin-3-yl)-4,5-dihydro-[1,2,4]triazolo[4,3-a]quinoline] | 4.2 | 1.77 | – | – |
| CCc1c(F)cncc1-c1cc2c(c(F)c1F)-n1c(C)nnc1CC2 [Example 170, 7-(4-ethyl-5-fluoropyridin-3-yl)-8,9-difluoro-1-methyl-4,5-dihydro-[1,2,4]triazolo[4,3-a]quinoline] | 41 | 17.3 | – | – |
| Cc1nnc2n1-c1c(Cl)cc(-c3cnccc3C3CC3)cc1CC2 [Example 96, 9-chloro-7-(4-cyclopropylpyridin-3-yl)-1-methyl-4,5-dihydro-[1,2,4]triazolo[4,3-a]quinoline] | – | – | 48 | 6.93 |

Source: patent US9073929B2, “Aldosterone synthase inhibitors” (ElexoPharm GmbH, priority 2011, dated 2015)
